Measurements from patent US20230339949A1, “HETEROCYCLIC SUBSTITUTED FUSED y-CARBOLINE DERIVATIVE, PREPARATION METHOD THEREFOR, INTERMEDIATE THEREOF AND USE THEREOF” (SHUJING BIOPHARMA CO., LTD, priority 2020, published 2023).
Like-named read-outs stand apart in the source and are kept apart here.

How the values were obtained:
Assay type in all cases: cell-based
D2L receptor = target: T1, D2L receptor (Homo sapiens, UniProt P14416); test: Functional activity test on D2L receptor, cAMP detection (Gi antagonist test); conditions: cryopreserved CHO-K1/D2L/Gα15 cells, forskolin + dopamine EC90
T1 construct: expressed in transfected cells
Description: (§1) The antagonistic effects of the compounds of the present disclosure on D2L and D2S receptors were detected by cyclic adenosine monophosphate (cAMP) detection method at cell-level.
(§2) • (1) Test compound: compounds of the embodiment of the present disclosure, self-made. • (2) Control compound: dopamine hydrochloride (Sigma, H8502), (+)-Butaclamol hydrochloride (Sigma, D033). • (3) Stable cell line:
(§3) • (1) Preparation of test compounds: the compounds of the embodiments of the present disclosure were respectively dissolved in DMSO to prepare 10 mM mother liquor, and the mother liquor was stored in the nitrogen cabinet for later use. • (2) Preparation of control compound: the control compound was dissolved in DMSO to prepare 10 mM mother liquor, and the mother liquor was repackaged and stored in the refrigerator at −80° C. for later use. • (3) IBMX was dissolved in DMSO to prepare 0.5 M stock solution and the stock solution was cryopreserved at −80° C. • (4) Forskolin was dissolved in DMSO to prepare 1 mM stock solution and the stock solution was cryopreserved at −80° C. for later use. • (5) Experimental buffer: 5× stimulation buffer was diluted to 1× with ddH2O and IBMX with a final concentration of 0.5 mM was added thereto, and the solution was mixed well for later use.
(§4) • (1) Preparation of compounds: the test compounds and positive control compound (+)-Butaclamol hydrochloride were diluted gradient using Bravo in the compound plate (Greiner-781280), and the initial concentration of working solution was 20 μM, and the working solution was diluted at 4-fold for 10 concentrations and centrifuged at 1000 rpm for 1 minute for later use. • (2) Cryopreserved D2L cells: cells was taken out from the liquid nitrogen tank and thaw in a water bath at 37° C., and the cell suspension was transferred to a centrifuge tube containing HBSS buffer, and centrifuged at 750 rpm for 5 minutes.
(§5) Cultured D2S cells: after absorbing the culture medium, the cells were washed with 3 mL PBS, sucked out, digested with 0.05% Trypsin for 3 min, terminated with equal volume of culture medium, transferred to centrifuge tube, and centrifuged at 750 rpm for 5 minutes. After absorbing the liquid, the centrifuge tube was added with a buffer solution containing HBSS and re-suspend, and centrifuged at 750 rpm for 5 minutes. • (3) The supernatant was discarded, and the precipitate was re-suspended with proper amount of experimental buffer, and 20 μL was taken for cell counting. • (4) Appropriate amount of cell suspension was removed, and the cell suspension was diluted to 2×10^5 cells/mL with experimental buffer, and the cell plate (PerkinElmer-6008280) was added with 5 μL/well cell suspension, and centrifuged at 1000 rpm for 1 minute. • (5) 5 μL/well was transferred to the cell plate with Bravo, and the cell plate was centrifuged at 1000 rpm for 1 minute, then the cell plate was closed and incubated at room temperature for 15 minutes. • (6) Forskolin was transferred to the cell plate with Tecan-D300e, and Dopamine hydrochloride with a final concentration of EC90 was transferred to the cell plate. • (7) The cell plate was centrifuged at 1000 rpm for 1 minute, then sealed and incubated at room temperature for 45 minutes. • (8) Standard curve: cAMP with the stock solution concentration of 2848 nM was diluted 4-fold continuously at 8 points according to the initial maximum concentration of 712 nM, and 10 μL/well was taken out to add to the cell plate. • (9) 10 μL/well of detection solution containing cAMP-d2 and Anti-cAMP-Cryptate (diluted with pyrolysis buffer at 1:20) was added to the cell plate, and the cell plate was centrifuged at 1000 rpm for 1 minute, and incubated at room temperature without light for 1 hour. • (10) Detection: the cell plate was centrifuged at 1000 rpm for 1 minute, and the plate was read with Envision (excitation light 340 nm, emission light 620 nm and 665 nm). […]

D2S receptor = target: T2, D2S receptor (Homo sapiens, UniProt P14416); test: Functional activity test on D2S receptor, cAMP detection (Gi antagonist test); conditions: cultured HEK293/D2S cells, forskolin + dopamine EC90
T2 construct: expressed in transfected cells
Description: as §1, §2, §3, §4, §5

5-HT2A receptor = target: T3, 5-HT2A receptor (Homo sapiens, UniProt P28223); test: Functional detection experiment of 5-HT2A receptor (cultured cells), calcium influx assay
T3 construct: expressed in transfected cells
Description: The antagonistic effect of the compound of the present disclosure on the 5-HT2A receptor was detected by a calcium influx assay at the cellular level.
• (1) Test compounds: compounds of the embodiments of the present disclosure, self-made. • (2) Control compound: serotonin hydrochloride 5-hydroxytryptamine (Sigma, H9523), Ketanserin (Targetmol, T1066). • (3) Stable cell line:
• (1) Preparation of test compounds: the compounds of the embodiments of the present disclosure were respectively dissolved in DMSO to prepare 10 mM mother liquor, and the mother liquor was stored in the nitrogen cabinet for later use. • (2) Preparation of control compound: the control compound was dissolved in DMSO to prepare 10 mM mother liquor, and the mother liquor was repackaged and stored in the refrigerator at -80° C. for later use. • (3) Preparation of 250 mM probenecid solution: 1 mL experimental buffer was added into a tube containing 77 mg powder, and the powder was dissolved by vortex oscillation. • (4) Preparation of 2× fluorescent probe solution: a bottle of fluorescent probe dry powder was taken out to balance to room temperature, and 10 mL of experimental buffer solution and 200 μL of 250 mM probenecid solution were added thereto, and the mixture was scrolled and let stand for 5 minutes to ensure complete dissolution. • (5) Experimental buffer HBSS: HBSS and HEPES were mixed evenly in a ratio of 50:1, stored in a refrigerator at 4° C., and heated at 37° C. when used.
• (1) Cells were taken out from the liquid nitrogen tank and melted in a water bath at 37° C. The surface of the cryopreservation tube was wiped with 75% alcohol and put in the biosafety cabinet. • (2) The cell suspension was transferred to a 15 mL centrifuge tube with 4 mL preheated plating medium, and the tube was centrifuged at 1000 rpm for 5 minutes. • (3) The supernatant was discarded, and 10 mL of plating medium was added and blown gently, and the mixture was transferred to a culture dish for growth. After the cells had adhered to the wall for 24 hours, they were replaced with growth medium for continuous culture.
• (1) The logarithmic growth cells was taken and the cells grew to about 85%-90%. The cells were performed the following operations: cell cleaning, digestion, termination, then transferred to a 15 mL centrifuge tube, and the tube was centrifuged at room temperature at 1000 rpm for 5 minutes. • (2) The supernatant was discarded, and a certain plating medium was added and blown gently. 20 μL of cell suspension was taken out and counted. • (3) Cells were diluted to 1×10^6 cells/mL and 20 μL of cell suspension was added to each well of the cell plate (Greiner-781946), so that the density of each well is 2×10^4 cells/well. • (4) The cell plate was incubated in an incubator with 5% CO2 at 37° C. for 16-24 hours. […]

[1] = cultured CHO-K1/5-HT2A cells, calcium influx (FLIPR), antagonist mode vs agonist EC80, read-out: 5-HT2A IC50

T3 sequence (P28223 whole entry): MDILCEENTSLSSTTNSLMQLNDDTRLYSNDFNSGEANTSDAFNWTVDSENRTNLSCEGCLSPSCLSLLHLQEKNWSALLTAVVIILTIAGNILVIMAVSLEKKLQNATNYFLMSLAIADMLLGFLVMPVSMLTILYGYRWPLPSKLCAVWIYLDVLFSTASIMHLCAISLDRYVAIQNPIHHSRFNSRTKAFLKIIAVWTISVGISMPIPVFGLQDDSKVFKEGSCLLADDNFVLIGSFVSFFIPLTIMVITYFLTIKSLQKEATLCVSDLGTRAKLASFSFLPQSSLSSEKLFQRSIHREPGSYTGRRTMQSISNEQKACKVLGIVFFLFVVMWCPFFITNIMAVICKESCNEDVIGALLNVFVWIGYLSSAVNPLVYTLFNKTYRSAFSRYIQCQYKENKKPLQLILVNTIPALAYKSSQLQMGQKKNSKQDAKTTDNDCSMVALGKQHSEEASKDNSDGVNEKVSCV
T1 sequence (P14416 whole entry): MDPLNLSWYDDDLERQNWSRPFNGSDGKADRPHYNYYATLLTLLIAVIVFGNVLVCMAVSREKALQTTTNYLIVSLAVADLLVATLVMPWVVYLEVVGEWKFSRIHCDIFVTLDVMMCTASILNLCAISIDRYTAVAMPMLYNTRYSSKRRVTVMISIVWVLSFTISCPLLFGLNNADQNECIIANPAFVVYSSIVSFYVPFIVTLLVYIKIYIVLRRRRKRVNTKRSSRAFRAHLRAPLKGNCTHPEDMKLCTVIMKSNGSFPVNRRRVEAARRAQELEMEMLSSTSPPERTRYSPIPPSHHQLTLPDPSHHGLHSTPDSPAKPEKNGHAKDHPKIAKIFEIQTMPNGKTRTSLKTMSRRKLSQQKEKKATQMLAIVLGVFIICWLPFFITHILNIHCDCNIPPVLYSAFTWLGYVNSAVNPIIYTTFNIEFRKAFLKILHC
T2 sequence (P14416 1-414 isoform P14416-2): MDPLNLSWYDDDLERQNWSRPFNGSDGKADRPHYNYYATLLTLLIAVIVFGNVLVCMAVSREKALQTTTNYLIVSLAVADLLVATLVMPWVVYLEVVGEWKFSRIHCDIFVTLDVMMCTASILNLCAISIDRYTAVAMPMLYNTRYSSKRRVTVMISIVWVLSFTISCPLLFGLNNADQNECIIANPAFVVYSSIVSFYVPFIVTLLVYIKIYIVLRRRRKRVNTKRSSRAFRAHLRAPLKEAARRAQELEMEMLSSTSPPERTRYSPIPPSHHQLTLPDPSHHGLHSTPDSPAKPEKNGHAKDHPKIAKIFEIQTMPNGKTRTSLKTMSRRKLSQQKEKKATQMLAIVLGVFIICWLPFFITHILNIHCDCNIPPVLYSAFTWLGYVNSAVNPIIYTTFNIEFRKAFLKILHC

Row | IC50 (D2L receptor) [nM] | IC50 (D2S receptor) [nM] | IC50 (5-HT2A receptor; [1]) [nM] | Structure (SMILES) | IC50 (5-HT2A receptor) [nM]
1 | 131 | 344 | 3.35 | CN1CCN2c3c(cccc31)[C@@H]1CN(CCCC(=O)c3ccc(F)cc3)CC[C@@H]12 [ITI-007, Lumateperone, reference compound] | 
2 | 30.9 | 261 | 0.78 | CN1C(=O)CN2c3c1cccc3[C@]1(C)CN(CCCC(=O)c3ccc(F)cc3)CC[C@H]21 [Embodiment 1-A, (6bR,10aS)-8-(4-(4-fluorophenyl)-4-oxobutyl)-3,6b-dimethyl-6b,7,8,9,10,10a-hexahydro-1H-pyrido[3′,4′:4,5]pyrrolo [1,2,3-de]quinoxalin-2(3H)-one] | 

Row | Structure (SMILES) | IC50 (D2L receptor) [nM] | IC50 (D2S receptor) [nM] | IC50 (5-HT2A receptor; [1]) [nM] | IC50 (5-HT2A receptor) [nM]
3 | CN1C(=O)CN2c3c1cccc3C1(C)CN(CCCC(=O)c3ccc(F)cc3)CCC21 (stereo not drawn) [Embodiment 1, 8-(4-(4-fluorophenyl)-4-oxobutyl)-3,6b-dimethyl-6b,7,8,9,10,10a-hexahydro-1H-pyrido[3′,4′:4,5]pyrrolo[1,2,3-de]quinoxalin-2(3H)-one] | 20.3 | 95.4 |  | 3.72
